Tests used:
HUVEC cells = experiment: HUVEC proliferation assay (FGF-stimulated); assay type: cell-based, human
Description: (§1) We performed proliferation assays to determine the effect of the synthetic EC binding peptides on the proliferation of endothelial cells. In these assays the proliferation of bovine capillary endothelial (BCE), human microvascular endothelial (HMVEC) and human vascular endothelial cells (HUVEC) was stimulated by FGF and VEGF165 as indicated on FIG. 4. The effect of increasing concentration of synthetic EC binding peptides was measured on the proliferation of the stimulated cells. After the 72 h incubation the media was removed, the plates were washed two times with PBS and frozen at −80° C. Proliferation of the BCE cells was accessed using the CyQUANT® fluorescent cell proliferation assay kit according to the manufacturer's recommendations.
(§2) In the MSA-peptide fusions the peptide sequence was inserted into a cysteine constrained loop between amino acids 53 and 62. […]
The transfected COS7-L cells were cultured in defined serum free media (VP-SFM). […] The concentration of the albumin proteins was determined by Western blot analysis of each preparation using a rabbit anti-MSA antibody and using purified MSA of known concentration to generate a standard curve. Following development of the blot and exposure to film the autoradiographs were analyzed using the Gel Doc 1000 image analysis system and Molecular Analyst software (BioRad).

[1] = tested on: bovine capillary endothelial cells (BCE); experiment: BCE proliferation assay (FGF-stimulated, CyQUANT); assay type: cell-based; conditions: 72 h
Description: as §1, §2
The transfected COS7-L cells were cultured in defined serum free media (VP-SFM). […] The concentration of the albumin proteins was determined by Western blot analysis of each preparation using a rabbit anti-MSA antibody and using purified MSA of known concentration to generate a standard curve. Following development of the blot and exposure to film the autoradiographs were analyzed using the Gel Doc 1000 image analysis system and Molecular Analyst software (BioRad). […]

Row | Substance | inhibition of HUVEC proliferation (in words, active range) (HUVEC cells) | inhibition of BCE proliferation (in words, active range) [1]
1 | MSA-myc: MSA with Myc epitope peptide EQKLISEEDL inserted between Glu 57 and Ser 58 (negative control) | did not significantly affect | did not significantly affect
2 | MSA: full-length mouse serum albumin (negative control) | did not significantly affect | did not significantly affect

Source: US20030166004A1, “Endothelial-cell binding peptides for diagnosis and therapy” (priority 2001, published 2003)
